Data reported in patent US12227482B2, “Compounds and compositions for the treatment of cancer” (The Regents of the University of California, priority 2016, dated 2025).

Tests used:
Format in all cases: cell-based
[1] = test system: LOX cells; experiment: Cell viability (CellTiter-Glo ATP content) in LOX cells; conditions: LOX, 72 h, 72 hours treatment, cell survival by CellTiter-Glo, 2% fetal bovine serum
Procedure, shortened: (§1)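 Cells plated at 5,000 per well in antibiotic-free RPMI with 2% FBS, treated next day in triplicate with increasing compound doses (final DMSO 0.5%) for 72 hours. Viability read as ATP content by CellTiter-Glo luminescence; percent survival relative to vehicle control set as 100%.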

[2] = test system: MelJuSo cells; experiment: Cell viability (CellTiter-Glo ATP content) in MelJuSo cells; conditions: Homo sapiens, MEL-JUSO, 72 hours treatment, cell survival by CellTiter-Glo, 2% fetal bovine serum
Procedure, shortened: as §1

[3] = test system: A549 cells; experiment: Cell viability (CellTiter-Glo ATP content) in A549 cells; conditions: Homo sapiens, A549, 72 h, 72 hours treatment, cell survival by CellTiter-Glo, 2% fetal bovine serum
Procedure, shortened: as §1

`CCCCC1C(c2ccc(F)cc2)=NN(c2ccc(Cl)cc2F)C1(C)C(=O)NCCCC(C)(C)CO` (stereo not drawn) [Compound 23, 4-butyl-1-(4-chloro-2-fluorophenyl)-3-(4-fluorophenyl)-N-(5-hydroxy-4,4-dimethylpentyl)-5-methyl-4,5-dihydro-1H-pyrazole-5-carboxamide] was tested, and the IC50 [1] was 0.5 to 1 µM, the IC50 [2] was 0.25 to 0.5 µM and the IC50 [3] was 0.5 to 1 µM.
In the case of `COC(=O)[C@H](C)NC(=O)C1(C)C(c2ccoc2)C(c2ccc(F)cc2F)=NN1c1ccc(F)cc1F` (stereo partly drawn) [Compound 132, (2S)-methyl 2-(1,3-bis(2,4-difluorophenyl)-4-(furan-3-yl)-5-methyl-4,5-dihydro-1H-pyrazole-5-carboxamido)propanoate], the IC50 [1] is reported as greater than 2 µM, the IC50 [2] is reported as greater than 2 µM and the IC50 [3] is reported as greater than 2 µM.
Work on `CC1(O)CC(NC(=O)CNC(=O)C2(C)C(c3cccs3)C(c3ccc(F)cc3)=NN2c2ccc(F)cc2F)C1` (stereo not drawn) [Compound 110, 1-(2,4-difluorophenyl)-3-(4-fluorophenyl)-N-(2-(3-hydroxy-3-methylcyclobutylamino)-2-oxoethyl)-5-methyl-4-(thiophen-2-yl)-4,5-dihydro-1H-pyrazole-5-carboxamide] yielded an IC50 [1] greater than 2 µM, an IC50 [2] greater than 2 µM and an IC50 [3] greater than 2 µM.
`CCCCC1C(c2ccc(F)cc2)=NN(c2ccccc2)C1(C)C(=O)NCC(C)(C)N(C)C` (stereo not drawn) [Compound 74, 4-butyl-N-(2-(dimethylamino)-2-methylpropyl)-3-(4-fluorophenyl)-5-methyl-1-phenyl-4,5-dihydro-1H-pyrazole-5-carboxamide] showed an IC50 [1] greater than 2 µM, an IC50 [2] greater than 2 µM and an IC50 [3] greater than 2 µM.
With `CCCCC1(C)C(c2ccc(F)cc2)=NN(c2ccc(F)cc2F)C1(C)C(=O)NCCOC` (stereo not drawn) [Compound 88, 4-butyl-1-(2,4-difluorophenyl)-3-(4-fluorophenyl)-N-(2-methoxyethyl)-4,5-dimethyl-4,5-dihydro-1H-pyrazole-5-carboxamide] the IC50 [1] was greater than 2 µM, the IC50 [2] was greater than 2 µM and the IC50 [3] was greater than 2 µM.
Work on `CCCCC1C(c2ccc(F)cc2)=NN(c2ccccc2)C1(C)C(=O)NCc1ccc(N(C)C)cc1` (stereo not drawn) [Compound 48, 4-butyl-N-(4-(dimethylamino)benzyl)-3-(4-fluorophenyl)-5-methyl-1-phenyl-4,5-dihydro-1H-pyrazole-5-carboxamide] yielded an IC50 [1] greater than 2 µM, an IC50 [2] greater than 2 µM and an IC50 [3] greater than 2 µM.
Work on `CCCCC1C(c2ccc(F)cc2)=NN(c2ccccc2)C1(C)C(=O)NCc1ccc(OC)cc1OC` (stereo not drawn) [Compound 46, 4-butyl-N-(2,4-dimethoxybenzyl)-3-(4-fluorophenyl)-5-methyl-1-phenyl-4,5-dihydro-1H-pyrazole-5-carboxamide] yielded an IC50 [1] greater than 2 µM, an IC50 [2] greater than 2 µM and an IC50 [3] greater than 2 µM.
`CCCCC1C(c2c(F)cc(F)cc2F)=NN(c2ccc(F)cc2F)C1(C)C(=O)NCCCC(C)(C)CO` (stereo not drawn) [Compound 97, 4-butyl-1-(2,4-difluorophenyl)-N-(5-hydroxy-4,4-dimethylpentyl)-5-methyl-3-(2,4,6-trifluorophenyl)-4,5-dihydro-1H-pyrazole-5-carboxamide] gave an IC50 [1] of 1 to 2 µM, an IC50 [2] of 0.5 to 1 µM and an IC50 [3] greater than 2 µM.
For `CCCCC1C(c2ccc(F)cc2)=NN(c2ccccc2)C1(C)C(=O)NCCC(C)N(C)C` (stereo not drawn) [Compound 75, 4-butyl-N-(3-(dimethylamino)butyl)-3-(4-fluorophenyl)-5-methyl-1-phenyl-4,5-dihydro-1H-pyrazole-5-carboxamide], the IC50 [1] was greater than 2 µM, the IC50 [2] was greater than 2 µM and the IC50 [3] was 0.5 to 1 µM.
Work on `CCCCC1C(c2ccc(F)cc2)=NN(c2ccccc2)C1(C)C(=O)NCC1CC1` (stereo not drawn) [Compound 73, 4-butyl-N-(cyclopropylmethyl)-3-(4-fluorophenyl)-5-methyl-1-phenyl-4,5-dihydro-1H-pyrazole-5-carboxamide] yielded an IC50 [1] of 1 to 2 µM, an IC50 [2] of 1 to 2 µM and an IC50 [3] greater than 2 µM.
